From a melting point compilation (Tetko et al.; mined from patent text by program, amines drawn as free bases though some values may be those of a salt)

SMILES	melting point [°C]
COc1ccccc1-n1c(CSc2ncnc3[nH]cnc23)nc2cccc(Cl)c2c1=O	237
Nc1nc2ccccc2n1-c1ccc(-c2ccco2)cc1	210 to 212
C=CCSCC(O)(Cn1cncn1)c1ccc(Cl)cc1Cl (configuration not stated)	92 to 94
CCN(CC)c1ccc(/C=C/C(=O)CC(=O)/C=C/c2ccc3cc[nH]c3c2)c(OC)c1	61 to 65
COc1ccc(-c2nc(-c3ccccc3)n(CCCCCCCC(=O)O)c2-c2ccc(OC)cc2)cc1	149 to 150
Cc1c(C)c2c(c(C)c1O)C(C(=O)O)C(C)(C)O2 (configuration not stated)	161 to 164
CSc1c2c3c(n1C)C(=O)C(=O)C(Cl)=C3NCC2	205
CCOC(=O)CCCCn1c(C(=O)OCC)cc2c(Cl)cc(O)cc21	74 to 76
CC(C)c1ccc(-c2cn(-c3cccc(C(=O)O)c3)cn2)cc1	248 to 250
O=C1CCc2c(Cl)sc(-c3ccccc3F)c21	133 to 135
CCCCCCOC(=O)OC(C)OC1=C(C(=O)Nc2ccccn2)N(C)S(=O)(=O)c2ccccc21 (configuration not stated)	86 to 87
O=C1c2ccccc2C(=O)N1Cc1noc(-c2ncn3c2[C@@H]2CCN2C(=O)c2c-3ccc(F)c2Cl)n1	292 to 294
CCCCc1nc(Sc2ccccc2)c(C(=O)OCC)[nH]1	74
O=CNc1ccc(Br)c(Cl)c1	110 to 113
Fc1ccccc1-c1nc2ncncc2[nH]1	267 to 271
O=c1[nH]nc(-c2ccc(C(F)(F)F)cc2)o1	214 to 216
CCc1ccc(C(=O)C(=O)O)[nH]1	126 to 128
CC(C)(C)c1cc(C(=O)c2ccco2)cc2c1OCC2(C)C	103 to 104
CNC(=N[N+](=O)[O-])N(Cc1cnc(Cl)s1)C(C)=O	105 to 106
Cc1nc(O)c(-c2ccccc2)s1	208 to 211
Cc1cccc(C)c1N1CC(=O)N(c2c(C)cccc2C)CC1=O	233 to 235
O=C(O)C1=Cc2cc(Br)cc(F)c2OC1C(F)(F)F (configuration not stated)	206 to 208
Cc1ccc(-c2nnc(N3CCC(OC(=O)Oc4ccccc4)CC3)nc2-c2ccc(C)cc2)cc1	142 to 143
CSc1cc2cnc(-c3ccccc3)n2c(SC)n1	117 to 118

SMILES	melting point [°C]
CC(C(=O)O)C(=O)Nc1cccc(S(=O)(=O)n2c(=O)[nH]c3cc(Cl)ccc3c2=O)c1 (configuration not stated)	187 to 188
COC(=O)C1=C(C)NC(C)=C(C(=O)OCCN2CCN(c3ccccc3OC)CC2)C1c1cccc([N+](=O)[O-])c1 (configuration not stated)	58
O=C1CN=C(c2ccccc2)c2cc(C(=O)c3ccc(Cl)cc3)ccc2N1	230
Brc1cccc2nc3[nH]c4ccccc4nc-3c12	> 300
COc1ccc(OC)c(C=C2CCn3c2nc2ccc(Cl)cc2c3=O)c1	220 to 222
CC(=O)NCCC1CCc2ccc3c(c21)CCO3 (configuration not stated)	78 to 79
COc1ccc(CNc2cc3c(Nc4ccc(Br)c(Br)c4)ncnc3cn2)cc1	166 to 169
COc1ccc(CC[C@H](N)C(=O)O)cc1F	164 to 167
CN(C)C(=O)CCC(=O)NC1CCC(CCN2CCN(c3nccc4c3OCC4)CC2)CC1 (configuration not stated)	178
CC(C)(C(=O)O)C(=O)O	121 to 123
CCOC(=O)C1=C(COCCNc2nccc(=O)[nH]2)NC(C)=C(C(=O)OC)C1c1ccccc1Cl (configuration not stated)	148 to 150
O=C(/C=C/c1ccc(O)c(OC(F)(F)F)c1)/C=C/c1ccc(O)c(OC(F)(F)F)c1	103 to 105
CCCc1ncc(CN2CC=C(c3ccc(F)cc3)CC2)c(N)n1	142 to 145
C[C@@H](N[C@@H](CC(=O)O)Cc1cc(F)c(F)cc1F)c1ccccc1	144
CN1CCOc2nc(Cl)c(Cl)nc21	170 to 172
CC(=O)Nc1nc2ccc(S(=O)(=O)n3c(CCCC(=O)O)cc4cc(C(F)(F)F)ccc43)cc2s1	> 250
Cn1c(=O)c2c(NC(=O)C3CCCCC3)onc2n(C)c1=O	210 to 212
CCNC(=O)Nc1ccc(-c2sc3c(c2CN(C)CCOC)c(=O)n(-c2ccc(OCCOC)c(OCCOC)c2)c(=O)n3Cc2c(F)cccc2F)cc1	206 to 208
Nc1nc2c(ncn2OC(CO)CCOCP(=O)(O)O)c(=O)[nH]1 (configuration not stated)	188 to 192
CN(C)C=CC(=O)C(c1ccccc1)c1ccccc1	93 to 94
COC(=O)c1cc(C(=O)c2c(C)c(OC)c3ccc(O)cn23)ccc1N	216
CCOc1ccc(-c2nc(-c3ccc(N4CCOCC4)c([N+](=O)[O-])c3)cs2)cc1OCC	119 to 120
Cc1ccc(N(C(=O)CCl)c2c(C)cccc2Cl)cc1	113 to 114
COCCNC(=O)c1cccc(-c2cccc3oc(Cc4ccc(F)c(F)c4)cc23)c1	83 to 84

SMILES	melting point [°C]
CC(=O)NCCc1cccc2ccc(OCCCCOc3ccc4occ(CCNC(C)=O)c4c3)cc12	160 to 162
CC(C)C1NC(=O)CN1C(=O)C(Cl)Cl (configuration not stated)	172 to 173
CC1(C)NC(=O)CN1C(=O)CCl	151 to 153
CCOC(=O)COc1ccc([N+](=O)[O-])cc1C1C(C(=O)OCC)=C(C)NC(C)=C1C(=O)OCC	175
N=C(N)Nc1c(Cl)cccc1Cl	213
CCOC(=O)/C=C\C(=O)Oc1cccc(-c2cn3c(n2)sc2ccccc23)c1	126 to 128
COc1ccc(N2CCN(c3c(C)c(C)c4c(c3C)C(c3ccc5ccccc5c3)C(C)(C)O4)CC2)cc1 (configuration not stated)	170 to 171
O=[N+]([O-])c1cc(-n2ccnc2)ccc1Sc1cccc2cnccc12	187 to 189
O=C1N(c2cc(Cl)cc(Cl)c2)C(=O)C2(Cc3ccc(Br)cc3)C[C@@H](c3ccccc3)CN12 (some centres not stated)	124
OCC(O)CSSc1nc2ccccc2s1 (configuration not stated)	115 to 120
CC(C)(C)c1cc(Cl)ccc1N1CCN(C(=O)C(=O)O)CC1	154 to 155
COc1ccnc(CS(=O)c2nc3c(C(F)(F)F)cccc3[nH]2)c1 (configuration not stated)	150 to 151
COC(=O)C=Cc1nc(C(=O)CCCC(=O)OC)ccc1OC	87 to 89
COc1ccc(-c2cc3ccccc3[nH]2)cc1NC(N)=S	188 to 191
CC=C(C)C1CCC2C3CC=C4CC(O)CCC4(C)C3CCC12C (configuration not stated)	140 to 145
O=C1c2ccccc2C(=O)N1CCCn1ccnc1-c1ccccc1	109 to 110
COc1cccc(-c2[nH]cc(C3=C[C@@H]4C[C@@H](c5ccccc5)CN4CC3)c2-c2ccncc2)c1	141 to 144
CCc1nc2c(N)nc3ccccc3c2n1CCCCNC(=O)C(C)C	155 to 156
COC(=O)C1CN(Cc2cccnc2)C(=O)C(=C2SC=CS2)C1=O (configuration not stated)	111 to 114
Cc1cn2nc(Cl)cc(C)c2n1	109 to 110
COC(=O)c1sccc1NC(=O)c1ccccc1SSc1ccccc1C(=O)Nc1ccsc1C(=O)OC	250 to 252
CC(=O)N1c2ccccc2-c2c([N+](=O)[O-])cnn2C1c1ccc(Cl)cc1 (configuration not stated)	183 to 184
Cc1c(O)ccc2c(=O)c(-c3ccc([N+](=O)[O-])cc3)coc12	345
CCOC(=O)c1ncc2[nH]c3ccc(NC(C)=O)cc3c2c1C	273 to 278
